Test results as given in PMC11133798, “Vosoritide treatment for children with hypochondroplasia: a phase 2 trial” (eClinicalMedicine, 2024).
Values joined by “and” are separate entries in the source; they are usually repeats but may differ in a detail not shown here. Identical values can stand only once.

Key:
[1] = test system: children with hypochondroplasia; test: Phase 2 open-label trial: height efficacy outcomes (annualized growth velocity, height SDS); type: in vivo, human; conditions: for Annualized growth velocity, treatment period / Annualized growth velocity SDS, treatment period: SD
Procedure: The study consists of a 6-month observation period to establish a baseline annualized growth velocity followed by a 12-month intervention period during which vosoritide is administered daily via subcutaneous injection at a dose of 15 μg/kg/day, the same dose as used in the Phase 3 trial of children with achondroplasia.[7] […] Details of the protocol can be found in the Supplementary Materials.
The study has 3 prespecified co-primary outcomes: 1. To evaluate the safety and tolerability of daily subcutaneous injections of vosoritide administered for 12 months in patients with selected genetic causes of short stature, 2. To evaluate the change from baseline in age-sex standardized annualized growth velocity after 12 months of daily SC injections of vosoritide in patients with selected genetic causes of short stature, and 3. To evaluate the change from baseline in age-sex standardized height SDS after 12 months of daily SC injections of vosoritide in patients with selected genetic causes of short stature. Annualized growth velocity was standardized using data from the First Zurich Longitudinal Study of Growth and Development[9] as it includes growth velocity data starting at age 2.5 years. Height SDS was calculated using the United States CDC growth charts.[8] Hypochondroplasia specific height SDS was calculated using recently published hypochondroplasia growth curves.[10] To measure these outcomes, the following 3 co-primary endpoints were specified: 1. The incidence of adverse events per participant, 2. The change from baseline in age-sex standardized annualized growth velocity after 12 months of treatment, and 3. The change from baseline in age-sex standardized height SDS after 12 months of treatment. Height was measured five times at each study visit on a wall-mounted calibrated Harpenden stadiometer. The average of all five values was used. Safety assessments included routine laboratory evaluations at each visit, baseline and Month 12 echocardiograms, electrocardiograms at each visit, vital signs measurements, and spine X-rays at Day 1 and Month 12.
No formal power calculations were done for this proof of principle study. Sample size was determined based on logistical feasibility. Medication adherence was calculated using the number of returned empty vials divided by the number of days of prescribed therapy. Demographics and clinical characteristics were summarized with mean and standard deviation (SD), median and interquartile (IQR) for numerical variables, frequency and proportion for categorical variables. Primary and secondary clinical outcomes were summarized with mean (SD) for the 6-month observation period and the 12-month treatment period. Paired t-tests were carried out to compare the difference between the treatment and observation periods. The corresponding p-value and 95% confidence interval (CI) were reported. Box and whisker plots were used for both primary endpoints (annualized growth velocity and height SDS) and exploratory endpoints (CXM and cGMP) to visualize the trends for the change from baseline to each of the follow-up visits. Safety data (AEs) were summarized as count and percentage of patients as well as the number of total occurrences per each listed AE for the observation period and the treatment period, respectively. As exploratory analyses, the primary endpoints were stratified based on age, baseline growth velocity and baseline height SDS. The summaries of mean (SD) for each visit, mean differences between treatment and observation periods, and the corresponding p-value and 95% CI were all reported. Parent reported quality of life using the QoLISSY scale was also reported with a similar tabular format. Data were analyzed using SAS for Windows version 9.4 (SAS Institute Inc., Cary, NC). A two-sided test with a significance level of 0.05 was used for all hypothesis tests.

[2] = test system: children with achondroplasia; conditions: cited from earlier work
From the text: Vosoritide is a c-type natriuretic peptide (CNP) analog that upon binding its receptor on chondrocytes inhibits the mitogen-activated protein kinase (MAPK) pathway. This pathway is downstream of FGFR3 and is activated in hypochondroplasia and achondroplasia. […] Based on this study and additional trials, vosoritide has now been approved in numerous countries for use in children ... || The standing height SDS increased by 0.37 SD during the year of treatment or 0.41 SD using hypochondroplasia specific growth charts. This is slightly greater than the 0.27 SD increase seen in the Phase 3 study of children with achondroplasia. In prior studies with children with achondroplasia, the increase in growth velocity and gains in height SDS have persisted over multiple years.[16]^,[17] Participants in the current study with positive responses to therapy have been enrolled in an ongoing extension study to assess if this will be true in hypochondroplasia as well. It is reassuring that th ...

[3] = test system: rat chondrosarcoma cells transfected with FGFR3 containing the hypochondroplasia mutation; conditions: addition of vosoritide; similar to achondroplasia mutation; n=3; ref unpublished BioMarin data; cited from earlier work
From the text: The rationale for using vosoritide in hypochondroplasia is primarily an extension of the positive clinical trial results in patients with achondroplasia, a more severe perturbation of the same gen ...

## PGQEHPNARKYKGANKKGLSKGCFGLKLDRIGSMSGLGC (disulfide) [vosoritide, recombinant 39-amino-acid C-type natriuretic peptide analog expressed in E. coli, cyclic by an intramolecular disulfide bond]
[1]; 15 μg/kg/day SC daily, 12-month treatment period, n=24, mean (SD), 6-month observation period 5.12 (1.36)
  Annualized growth velocity, treatment period: 6.93 (0.93) cm/year
[1]; CDC growth charts, Day 1 to Month 12, n=24, mean (95% CI), change in observation period 0.01 (−0.06, 0.08)
  Standing height SDS, change during treatment period: 0.37 (0.27, 0.47) SD
[1]; Day 1 to Month 12, n=24, mean (95% CI), change in observation period 0.03 (−0.12, 0.19)
  Hypochondroplasia specific standing height SDS, change during treatment period: 0.41 (0.32, 0.50) SD
[1]; age-sex standardized (First Zurich Longitudinal Study), 15 μg/kg/day SC, 12-month treatment, n=24, mean (SD), observation period −1.14 (1.29)
  Annualized growth velocity SDS, treatment period: 1.12 (1.05) cm/year
[1]; n=24, on treatment
  Annualized growth velocity, Month 6 versus Month 12 visit: no significant difference
[1]; person, vosoritide suspended for 40 days for immune thrombocytopenia
  Increase in annualized growth velocity, single participant with treatment interruption: 2.4 cm/year
[1]; subgroup Age 3 to <5 Year (N=10), 12-month treatment, 15 μg/kg/day SC, mean (SD), observation 5.97 (1.38)
  Annualized growth velocity, treatment period: 7.32 (0.79) cm/yr
[1]; subgroup Age 3 to <5 Year (N=10), mean (SD), observation -0.82 (1.12)
  Annualized growth velocity SDS, treatment period: 1.23 (1.01) cm/yr
[1]; subgroup Age 5 to <9 Year (N=11), mean (SD), observation 4.27 (0.75)
  Annualized growth velocity, treatment period: 6.91 (0.80) cm/yr
[1]; subgroup Age 5 to <9 Year (N=11), mean (SD), observation -1.93 (0.81)
  Annualized growth velocity SDS, treatment period: 1.29 (1.13) cm/yr
[1]; subgroup Age 9 to <11 Year (N=3), mean (SD), observation 0.71 (1.12)
  Annualized growth velocity SDS, treatment period: 0.16 (0.38) cm/yr
[1]; subgroup Age 9 to <11 Year (N=3), mean (SD), observation 5.37 (1.53)
  Annualized growth velocity, treatment period: 5.71 (0.98) cm/yr
[1]; subgroup GV baseline <=5.0 (N=14), mean (SD), observation 4.17 (0.59)
  Annualized growth velocity, treatment period: 6.91 (1.01) cm/yr
[1]; subgroup GV baseline > 5.0 (N=10), mean (SD), observation 6.45 (0.94)
  Annualized growth velocity, treatment period: 6.96 (0.85) cm/yr
[1]; subgroup Height SDS baseline -3.5 to <=-3.0 (N=9), mean (SD), observation 5.17 (0.89)
  Annualized growth velocity, treatment period: 6.88 (0.84) cm/yr
[1]; subgroup Height SDS baseline <=-3.5 (N=7), mean (SD), observation 4.67 (1.11)
  Annualized growth velocity, treatment period: 6.64 (1.14) cm/yr
[1]; subgroup Height SDS baseline >-3.0 (N=8), mean (SD), observation 5.46 (1.95)
  Annualized growth velocity, treatment period: 7.24 (0.86) cm/yr
[1]; two participants (Gly342Cys, Ser351Phe per Table 1), one value each, cohort mean 2.26 SD
  Change in annualized growth velocity (SDS), single participants without the Asn540Lys variant in FGFR3: 2.5 SD and 2.4 SD
[2]; Phase 3, placebo-controlled, children with achondroplasia, 15 μg/kg/day
  Adjusted mean difference in annualized growth velocity: 1.57 cm/year
[2]; Phase 3 study of children with achondroplasia
  Increase in standing height SDS: 0.27 SD
[3]
  ERK1/2 activation: decrease ERK1/2 activation
